# Read-outs that look alike come from different tables or passages of the source.
# How the values were obtained:
# Klebsiella = type: cell-based
# Protocol: At 0.05 µg/mL level, TOC removal was equivalent to the untreated control. When BNS concentrations of 0.5 µg/mL were used, TOC removal ceased and in the second series of experiments, TOC levels increased sharply at 0.5 - 2 µg/mL concentrations of BNS. Similar results were obtained when BNS was used to treat bacteria growing in the glucose salts medium. No increases in TOC removal were seen. The TOC concentration increased rapidly at BNS concentration of 0.5 - 2 ppm only to fall back to control levels at 5 ppm. The cells then added TOC to the medium again from […] concentrations of BNS. This middle range spike in TOC (0.5-2 µg/mL BNS) was thought to be caused by excessive extra cellular polymer sloughing and limited cellular death as evidenced by the viability counts in the. 0.5 - 2 µg/mL BNS range. […] The dissolved oxygen concentration was decreased in the presence of BNS at concentrations of 0.05 - 1 µg/mL but at no concentration of BNS was the removal greater than the control level.
# This set of experiments tends to make the BNS range of useful concentrations even lower than noted before. […] DO removal was seriously affected by concentrations of BNS that were ≥ 0.5 µg/mL. In short, it would appear that BNS would have to be used at concentrations ≤ 0.5 µg/mL in order to prevent the upset of a waste treatment facility by killing off the microbial populations. […]
# E. coli K12 ATCC 25404 = assay: Continuous culture (chemostat) biomass yield; type: cell-based, Escherichia coli; settings: for inhibition of growth at 5 ppm / inhibition of growth at 2 ppm / inhibition of growth at 1 ppm: Escherichia coli, read-out: % From Control
# Protocol: Biomass determinations were by Millipore Filtration using Millipore type H.A. 0.45 µ filters. Samples were centrifuged @ 15,000 x for 10 min., supernatant was filtered through a dried and preweighed filter. The centrifuged pellet was then vortexed in 2 mL of D.I. water and filtered also. Samples were then dried overnight @ 105°C and re-weighed. Biomass was the weight of the dried filter less the tared filter weight.
# Glucose determinations were carried out on the centrifuged reactor sample supernatants using glucose enzymatic assay (hexokinase and glucose 6-phosphate dehydrogenase) UV-15 Sigma Chemical Co., St. Louis, MO. (Assay set-up pamphlet accompanies kit). Spectrophotometric measurements were run on a Zeiss PM-6 Spektralphotometer, Carl Zeiss, 7082 Oberkochen, West Germany.
# Continuous culture medium was composed of 5 g/1 glucose, 40 mL/1 25 X VBE, and 2.5 mL/1 trace mixture. Bulk medium composed of deionized H20 plus 25X VBE was steam sterilized for 45 min. @ 121°C. Trace mix was autoclaved separately and added aseptically. Glucose was filter sterilized and added last (aseptically).
# Bioflo Model C32 Chemostat units (bioreactors) , New Brunswick Scientific, Edison NJ, with a working volume of 1400 mL were utilized for the continuous culture experimentation. pH control on the systems was maintained by Model 5997-20 Horizon pH Controllers. Ingold Sterilizable pH Electrodes, Type 465-35-K9, Andover, MA, were sterilized in place before each run. pH adjustment was by controller addition of sterile 2N NaOH upon demand.
# Sterile chemostats vessels were filled to working volume with media seeded with 10 mL of 48 hr. E. coli K12 ATCC 25404 culture grown up overnight in nutrient broth (BBL, Cockeysville, MD) @ 37°C. Reactors were run for 72 hours in the batch mode @ 37°C, and then put into continuous flow. The reactors were run for a minimum of five reactor turnovers before initial sampling to insure a steady state. Sampling was then conducted at a maximum of once/reactor turnover, with a minimum number of 11 reactor turnovers per chemostat run. Both control and BNS containing chemostats were stripped, cleaned and the E. coli culture reestablished (as above) each time before either the BNS concentration or the dilution rate was increased. Eleven reactor turnovers is equivalent to 3.5 days at the highest dilution rate used (minimum time for a chemostat run). Uncoupler Addition to Continuous Culture
# BNS stock was composed of 10% BNS, 5% Triton X-114 and 85% carbitol acetate. BNS was diluted in deionized water to the appropriate 10X concentration desired. Breakdown kinetics were measured in a deionized H20/BNS system by spectrophotometric measurement at 320 nm and a BNS half life was determined to be 7 hours. Continuous and separate pumping of uncoupler was by a Masterflex 7552-10 peristalic pump (Cole Parmer, Chicago, IL) through silicon tubing lines into the bioreactor. Feed flow was split 90% organic feed, 10% BNS feed for total flow. New uncoupler feed was made up daily from the previously mentioned stock, since there was only 10% of the original BNS concentration left before the new daily solution of BNS feed was begun. BNS dose of 1, 2 and 5 ppm was based on the total bulk feed. Reservoir solutions were mixed constantly on a Fisher versamix magnetic stir plate at a speed of 0.4/1.0 to prevent settling out of chemical.
# Chemostat system parameters were set at pH - 7.0, temper, ature 37°C, aeration 2.0 standard litres per minute (SLPM) and agitation at 300 rpm for all experimentation.
# Daily checks were made on system for pH, media flow, NaOH consumption, BNS flow, temperature; agitation speed and aeration rate. Mixed liquor glucose and gravimetric biomass determinations were performed at least 5 times per week. Periodic checks were also made on the organic strength of the influent medium, depending on the frequency of new media make-up.
smiles,measurement,setting,value
"O=[N+]([O-])C(Br)=Cc1ccccc1 [BNS, beta-bromo-beta-nitrostyrene]",concentrations seriously affecting DO removal,Klebsiella,≥ 500 ng/mL
same,toxic concentration,Klebsiella,0.5 to 1 µg/mL
same,Biomass Yield,"E. coli K12 ATCC 25404; 1.0 ppm BNS, Dilution Rate 0.068 hr.^-1",0.268 g cells/g substrate
same,Biomass Yield,"E. coli K12 ATCC 25404; 1.0 ppm BNS, Dilution Rate 0.086 hr.^-1",0.276 g cells/g substrate
same,Biomass Yield,"E. coli K12 ATCC 25404; 1.0 ppm BNS, Dilution Rate 0.132 hr.^-1",0.324 g cells/g substrate
same,Biomass Yield,"E. coli K12 ATCC 25404; 2.0 ppm BNS, Dilution Rate 0.066 hr.^-1",0.273 g cells/g substrate
same,Biomass Yield,"E. coli K12 ATCC 25404; 2.0 ppm BNS, Dilution Rate 0.090 hr.^-1",0.241 g cells/g substrate
same,Biomass Yield,"E. coli K12 ATCC 25404; 2.0 ppm BNS, Dilution Rate 0.130 hr.^-1",0.275 g cells/g substrate
same,Biomass Yield,"E. coli K12 ATCC 25404; 5.0 ppm BNS, Dilution Rate 0.070 hr.^-1",0.287 g cells/g substrate
same,Biomass Yield,"E. coli K12 ATCC 25404; 5.0 ppm BNS, Dilution Rate 0.090 hr.^-1",0.237 g cells/g substrate
same,Biomass Yield,"E. coli K12 ATCC 25404; 5.0 ppm BNS, Dilution Rate 0.131 hr.^-1",0.298 g cells/g substrate
same,inhibition of growth at 5 ppm,"E. coli K12 ATCC 25404; ATCC25404, 0.07 h, 5.0 ppm BNS, Dilution Rate 0.070 hr.^-1",9.5%
same,inhibition of growth at 2 ppm,"E. coli K12 ATCC 25404; ATCC25404, 0.09 h, 2.0 ppm BNS, Dilution Rate 0.090 hr.^-1",26.1%
same,inhibition of growth at 5 ppm,"E. coli K12 ATCC 25404; ATCC25404, 0.09 h, 5.0 ppm BNS, Dilution Rate 0.090 hr.^-1",27.3%
same,inhibition of growth at 2 ppm,"E. coli K12 ATCC 25404; ATCC25404, 0.13 h, 2.0 ppm BNS, Dilution Rate 0.130 hr.^-1",18.3%
same,inhibition of growth at 1 ppm,"E. coli K12 ATCC 25404; ATCC25404, 1.0 ppm BNS, Dilution Rate 0.068 hr.^-1",15.2%
same,inhibition of growth at 1 ppm,"E. coli K12 ATCC 25404; ATCC25404, 1.0 ppm BNS, Dilution Rate 0.086 hr.^-1",15%
same,inhibition of growth at 1 ppm,"E. coli K12 ATCC 25404; ATCC25404, 1.0 ppm BNS, Dilution Rate 0.132 hr.^-1",3.9%
same,inhibition of growth at 2 ppm,"E. coli K12 ATCC 25404; ATCC25404, 2.0 ppm BNS, Dilution Rate 0.066 hr.^-1",13.3%
same,inhibition of growth at 5 ppm,"E. coli K12 ATCC 25404; ATCC25404, 5.0 ppm BNS, Dilution Rate 0.131 hr.^-1",11.5%
